Assay results taken from the supplement of paper PMC11208160.

assay: recombinant barcode read abundance after kanamycin selection (control-corrected) (log10(CPM+1)); higher = more efficient recombination; sequences stand for … in AGTGCAGAGAAAATCGGCCAGTTTTCTCTGCCTGCAGTCCGCATGCCGT…AGATTTATGCAGCGGACTGCCTTTCTCCCAAAGTGATAAACCGGACAGTATCATGGACCGGTTTTCCCGGTAATCCGTATTTGCAAGGTTGGTTTCACT; site = the 11-nt target
Procedure, shortened: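 Recombination efficiency comes from barcode counts at recombinant junctions, converted to counts per million, averaged and corrected against the control. Values appear as log10(CPM+1). They were obtained from a pooled E. coli screen in which each oligo paired a target with an IS621 bridge RNA target-binding loop, and cells were plated in duplicate on chloramphenicol/ampicillin LB agar or on chloramphenicol/ampicillin/kanamycin with 0.1 mM IPTG.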
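Note: IS621 recombinase and bridge RNA in Escherichia coli cells.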

“TCGCTAGCTTGGGTTCTAACCTGTTGCCT (site GCGCTAGCTAG)” and “TCGCTAGCTTGGGTTCTAACCTGTTGCCT (site TCGCTAGCTAG)” are within 0.2 log units of each other in “recombinant barcode read abundance (log10)” value: 0.0173 for the first, 0.0976 for the second.

Compared with “TCGTATACTTGGGTTCTAACCTGTTGCGG (site TAGTATACTCA)”, “TCGTATACTTGGGTTCTAACCTGTTGCGG (site TCGTATACTCC)” is higher in “recombinant barcode read abundance (log10)” value: 0.193 for the first, 0.396 for the second.

“TCGTGAGCTTGGGTTCTAACCTGTTGCCT (site TAGTGAGCTAG)” and “TCGTGAGCTTGGGTTCTAACCTGTTGCCT (site TCGTGAGCTAG)” are within 0.2 log units of each other in “recombinant barcode read abundance (log10)” value: 0.0646 for the first, 0.226 for the second.

“TCGTGAGCTTGGGTTCTAACCTGTTGCTG (site GGTGACCCTAT)” and “TCGTGAGCTTGGGTTCTAACCTGTTGCTG (site TCGTGAGCTCA)” are within 0.2 log units of each other in “recombinant barcode read abundance (log10)” value: 0.147 for the first, 0.301 for the second.

Compared with “TCGTGCCCTTGGGTTCTAACCTGTTGCCT (site TCGTGCACTAG)”, “TCGTGCCCTTGGGTTCTAACCTGTTGCCT (site TCGTGCCCTAG)” is higher in “recombinant barcode read abundance (log10)” value: 0.0746 for the first, 0.398 for the second.

“TCGTGCCCTTGGGTTCTAACCTGTTGCCT (site TCGTGCGCTAG)” and “TCGTGCCCTTGGGTTCTAACCTGTTGCCT (site TCGTGCTCTAG)” are within 0.2 log units of each other in “recombinant barcode read abundance (log10)” value: 0.165 for the first, 0.0522 for the second.

First: TCGTTCGCTTGGGTTCTAACCTGTTGCCG (site GTCAGATCTAA)
Second: TCGTTCGCTTGGGTTCTAACCTGTTGCCG (site TCGTTCGCTCG)
The “recombinant barcode read abundance (log10)” value of the first is higher: 0.37 for the first, 0.0881 for the second.

“TCTAAACCTTGGGTTCTAACCTGTTGCAT (site TCTAAACCTAT)” and “TCTAAACCTTGGGTTCTAACCTGTTGCAT (site TCTAACCCTAT)” are within 0.2 log units of each other in “recombinant barcode read abundance (log10)” value: 0.197 for the first, 0.142 for the second.

“TCTAAACCTTGGGTTCTAACCTGTTGCAT (site TCTAAGCCTAT)” and “TCTAAACCTTGGGTTCTAACCTGTTGCAT (site TCTAATCCTAT)” are within 0.2 log units of each other in “recombinant barcode read abundance (log10)” value: 0.0795 for the first, 0.229 for the second.

Going from “TCTAAGACTTGGGTTCTAACCTGTTGCGC (site CTACCCTCTAG)” to “TCTAAGACTTGGGTTCTAACCTGTTGCGC (site TCTAAGACTGC)”, the “recombinant barcode read abundance (log10)” value rises from 0.0242 to 1.26.

“TCTAAGCCTTGGGTTCTAACCTGTTGCAT (site TCTAAACCTAT)” and “TCTAAGCCTTGGGTTCTAACCTGTTGCAT (site TCTAACCCTAT)” are within 0.2 log units of each other in “recombinant barcode read abundance (log10)” value: 0.152 for the first, 0.259 for the second.

Compared with “TCTAAGCCTTGGGTTCTAACCTGTTGCAT (site TCTAAGCCTAT)”, “TCTAAGCCTTGGGTTCTAACCTGTTGCAT (site TCTAATCCTAT)” is lower in “recombinant barcode read abundance (log10)” value: 0.531 for the first, 0.0292 for the second.

Compared with “TCTACCTCTTGGGTTCTAACCTGTTGCCT (site TCTACATCTAG)”, “TCTACCTCTTGGGTTCTAACCTGTTGCCT (site TCTACCTCTAG)” is higher in “recombinant barcode read abundance (log10)” value: 0.0227 for the first, 1.19 for the second.

“TCTACCTCTTGGGTTCTAACCTGTTGCCT (site TCTACGTCTAG)” and “TCTACCTCTTGGGTTCTAACCTGTTGCCT (site TCTACTTCTAG)” are within 0.2 log units of each other in “recombinant barcode read abundance (log10)” value: 0.102 for the first, 0.0484 for the second.

“TCTACGTCTTGGGTTCTAACCTGTTGCCT (site TCTACATCTAG)” and “TCTACGTCTTGGGTTCTAACCTGTTGCCT (site TCTACCTCTAG)” are within 0.2 log units of each other in “recombinant barcode read abundance (log10)” value: 0.0403 for the first, 0.00686 for the second.

“TCTACGTCTTGGGTTCTAACCTGTTGCCT (site TCTACGTCTAG)” and “TCTACGTCTTGGGTTCTAACCTGTTGCCT (site TCTACTTCTAG)” are within 0.2 log units of each other in “recombinant barcode read abundance (log10)” value: 0.168 for the first, 0.126 for the second.

Going from “TCTCACCCTTGGGTTCTAACCTGTTGCCT (site TCTCACCCTAG)” to “TCTCACCCTTGGGTTCTAACCTGTTGCCT (site TCTGATCCTAG)”, the “recombinant barcode read abundance (log10)” value falls from 0.516 to 0.0773.

Going from “TCTCATTCTTGGGTTCTAACCTGTTGCGT (site TCTAATTCTAC)” to “TCTCATTCTTGGGTTCTAACCTGTTGCGT (site TCTCATTCTAC)”, the “recombinant barcode read abundance (log10)” value rises from 0.0146 to 0.937.

“TCTCATTCTTGGGTTCTAACCTGTTGCGT (site TCTGATTCTAC)” and “TCTCATTCTTGGGTTCTAACCTGTTGCGT (site TCTTATTCTAC)” are within 0.2 log units of each other in “recombinant barcode read abundance (log10)” value: 0.163 for the first, 0.0829 for the second.

First: TCTCCGCCTTGGGTTCTAACCTGTTGCCT (site TCTCAGCCTAG)
Second: TCTCCGCCTTGGGTTCTAACCTGTTGCCT (site TCTCCGCCTAG)
The “recombinant barcode read abundance (log10)” value of the first is lower: 0.139 for the first, 0.431 for the second.

“TCTCCGCCTTGGGTTCTAACCTGTTGCCT (site TCTCGGCCTAG)” and “TCTCCGCCTTGGGTTCTAACCTGTTGCCT (site TCTCTGCCTAG)” are within 0.2 log units of each other in “recombinant barcode read abundance (log10)” value: 0.0901 for the first, 0.0964 for the second.

In the case of “TCTCGATCTTGGGTTCTAACCTGTTGCAT (site CCTCGATCTAT)”, the “recombinant barcode read abundance (log10)” value is reported as 0.0525.
